Patent US20200163984A1, “USE OF ISOVALERYL SPIRAMYCIN I, II AND/OR III IN MANUFACTURING MEDICAMENT FOR TREATING AND/OR PREVENTING TUMOR, AND MEDICAMENT” (SHENYANG FUYANG PHARMACEUTICAL TECHNOLOGY CO., LTD., priority 2017, published 2020)

Tests used:
[1] = tested on: transplanted tumor of human prostate cancer cell PC3; test: PC3 transplanted tumor in nude mice
Procedure: (§1) Then cell concentration was adjusted to 1×10^7/ml with matrigel, then each nude mouse was inoculated subcutaneously with 0.2 ml of cells at its right armpit and recorded as the first day of inoculation. When the tumor grows to be greater than or equal to 100 mm^3, the mice were randomly divided into 11 groups with 6 mice in each group: a model group, a cyclophosphamide group, isovaleryl spiramycin I groups with doses of 25, 50 and 100 mg/kg, isovaleryl spiramycin II groups with doses of 25, 50 and 100 mg/kg, and isovaleryl spiramycin III groups with doses of 25, 50 and 100 mg/kg. Each group was continuously administered intragastrically for 30 days with a dose of 20 ml/kg. The mice were sacrificed the next day after drug withdrawal and the indicators were tested. The long diameter and short diameter of the tumor, and the body weight of each mouse were recorded every 3 days from drug administration to nude mouse sacrifice.
(§2) The body weight of the nude mice and the long diameter (a) and short diameter (b) of the transplanted tumor were measured every 3 days, and the tumor volume (v), relative tumor volume (RTV) and relative tumor proliferation rate (T/C) are calculated respectively according to the following formulas, wherein V=a×b^2/2; RTV=V/V0 (V0 is the tumor volume before administration, V is the tumor volume before sacrifice), and T/C (%)=treatment group RTV/model control group RTV×100%.
(§3) Each mouse was weighed and sacrificed. After the tumor was completely stripped off from the body of the mouse, the non-tumor tissues such as blood stains and fat were removed to weigh the tumor and calculate the tumor growth inhibition rate. The average tumor weight of each group of mice is used as an indicator of efficacy. Tumor growth inhibition rate (%)=(1−the average tumor weight of the treatment group/the average tumor weight of the model group)×100%.

[2] = tested on: transplanted tumor of human glioma cell U251; test: U251 transplanted tumor in nude mice; conditions: for Tumor Volume (mm3) (d 1): d1
Procedure: as §1, with “U251 cells in a logarithmic growth phase were taken and subjected to a trypan blue exclusion experiment showing that the cell viability was more than 95%, then the cells were subjected to trypsinization, centrifugation, and supernatant removal. Then” for “Then”
as §2, §3

[3] = tested on: transplanted tumor of human esophageal cancer cell TE-1; test: TE-1 transplanted tumor in nude mice
Procedure: as §1, §2, §3

[4] = PC3, 25 mg/kg (low dose) i.g. 30 days
[5] = PC3, 50 mg/kg (medium dose) i.g. 30 days
[6] = PC3, 100 mg/kg (high dose) i.g. 30 days
[7] = U251, high dose (100 mg/kg in method) i.g. 30 days
[8] = U251, low dose (25 mg/kg in method) i.g. 30 days
[9] = U251, medium dose (50 mg/kg in method) i.g. 30 days
[10] = TE-1, 12.5 mg/kg (low dose) i.g. 30 days
[11] = TE-1, 25 mg/kg (medium dose) i.g. 30 days
[12] = TE-1, 50 mg/kg (high dose) i.g. 30 days

For `CCC(=O)O[C@@H]1CC(=O)O[C@H](C)C/C=C/C=C/[C@H](O[C@H]2CC[C@H](N(C)C)[C@@H](C)O2)[C@H](C)C[C@H](CC=O)[C@H](O[C@@H]2O[C@H](C)[C@@H](O[C@H]3C[C@@](C)(O)[C@@H](OC(=O)CC(C)C)[C@H](C)O3)[C@H](N(C)C)[C@H]2O)[C@H]1OC` [Isovaleryl spiramycin III, isovaleryl spiramycin III], the “Inhibition Rate (tumor growth inhibition rate)” value [1, 4] was 25.43%, the “Relative Tumor Proliferation Rate (T/C)” value [1, 4] was 75.75% and the “Relative Tumor Volume (RTV)” value [1, 4] was 14.82 ± 7.55. For the same compound, the “Tumor Volume (d 1)” value [1, 4] was 146.91 ± 6.70 mm3, the “Tumor Volume (d 30)” value [1, 4] was 1914.85 ± 729.54 mm3 and the “Tumor Weight” value [1, 4] was 1.40 ± 0.54 g. The “Inhibition Rate (tumor growth inhibition rate)” value ([1]; PC3, 25 mg/kg (low dose) i.g. 30 days, listed as isovaleryl spiramycin III) was 25.44%, the “Inhibition Rate (tumor growth inhibition rate)” value [1, 5] was 40.16% and the “Relative Tumor Proliferation Rate (T/C)” value [1, 5] was 55.01%. The “Relative Tumor Volume (RTV)” value [1, 5] was 10.76 ± 2.24, the “Tumor Volume (d 1)” value [1, 5] was 187.01 ± 50.28 mm3 and the “Tumor Volume (d 30)” value [1, 5] was 1935.79 ± 228.06 mm3. For the same compound, the “Tumor Weight” value [1, 5] was 1.12 ± 0.45 g, the “Relative Tumor Proliferation Rate (T/C)” value ([1]; PC3, 50 mg/kg (medium dose) i.g. 30 days, listed as isovaleryl spiramycin III) was 55.02% and the “Inhibition Rate (tumor growth inhibition rate)” value [1, 6] was 60.37%. For the same compound, the “Relative Tumor Proliferation Rate (T/C)” value [1, 6] was 34.57%, the “Relative Tumor Volume (RTV)” value [1, 6] was 6.76 ± 1.61 and the “Tumor Volume (d 1)” value [1, 6] was 155.11 ± 7.98 mm3. The “Tumor Volume (d 30)” value [1, 6] was 1051.03 ± 272.23 mm3, the “Tumor Weight” value [1, 6] was 0.75 ± 0.25 g and the “tumor volume and relative tumor volume compared with the model group” value (shortened to “tumor volume and relative tumor volume”) ([1]; PC3, low, medium and high doses, P<0.05) was “significantly lower”. For the same compound, the “mouse weight compared with the model group” value ([1]; mouse, in vivo) was “no significant changes”, the “Relative Tumor Proliferation Rate (T/C)” value [2, 7] was 41.10% and the “tumor growth inhibition rate” value [2, 7] was 59.56%. The “Relative Tumor Proliferation Rate (T/C)” value [2, 8] was 68.16%, the “tumor growth inhibition rate” value [2, 8] was 15.45% and the “tumor volume and relative tumor volume” value ([2]; U251, low, medium and high doses, P<0.05) was “significantly lower”. For the same compound, the “Relative Tumor Proliferation Rate (T/C)” value [2, 9] was 54.34%, the “tumor growth inhibition rate” value [2, 9] was 32.74% and the “Inhibition Rate (%)” value ([2]; U251 nude mice, 25 mg/kg) was 15.45%. For the same compound, the “Relative Tumor Proliferation Rate (T/C)” value ([2]; U251 nude mice, 25 mg/kg) was 68.16%, the “Relative Tumor Volume (RTV)” value ([2]; U251 nude mice, 25 mg/kg) was 13.47 ± 1.67 and the “Tumor Weight” value ([2]; U251 nude mice, 25 mg/kg) was 1.17 ± 0.11 g. For the same compound, the “Tumor Volume (mm3) (d 1)” value ([2]; U251 nude mice, 25 mg/kg) was 124.24 ± 10.18 mm3, the “Tumor Volume (mm3) (d30)” value ([2]; U251 nude mice, 25 mg/kg) was 1413.41 ± 221.90 mm3 and the “Inhibition Rate (%)” value ([2]; U251 nude mice, 50 mg/kg) was 32.74%. For the same compound, the “Relative Tumor Proliferation Rate (T/C)” value ([2]; U251 nude mice, 50 mg/kg) was 54.34%, the “Relative Tumor Volume (RTV)” value ([2]; U251 nude mice, 50 mg/kg) was 12.63 ± 1.27 and the “Tumor Weight” value ([2]; U251 nude mice, 50 mg/kg) was 0.93 ± 0.12 g. The “Tumor Volume (mm3) (d 1)” value ([2]; U251 nude mice, 50 mg/kg) was 121.24 ± 9.15 mm3, the “Tumor Volume (mm3) (d30)” value ([2]; U251 nude mice, 50 mg/kg) was 1096.57 ± 173.49 mm3 and the “Inhibition Rate (%)” value ([2]; U251 nude mice, 100 mg/kg) was 59.56%. For the same compound, the “Relative Tumor Proliferation Rate (T/C)” value ([2]; U251 nude mice, 100 mg/kg) was 41.10%, the “Relative Tumor Volume (RTV)” value ([2]; U251 nude mice, 100 mg/kg) was 10.96 ± 0.82 and the “Tumor Weight” value ([2]; U251 nude mice, 100 mg/kg) was 0.56 ± 0.05 g. The “Tumor Volume (mm3) (d 1)” value ([2]; U251 nude mice, 100 mg/kg) was 120.86 ± 6.34 mm3, the “Tumor Volume (mm3) (d30)” value ([2]; U251 nude mice, 100 mg/kg) was 832.79 ± 182.98 mm3 and the “mouse weight compared with the model group” value ([2]; mouse, in vivo) was “no significant changes”. The “Body Weight (g) (d1)” value ([2]; mouse, in vivo, 25 mg/kg) was 20.96 ± 0.58 g, the “Body Weight (g) (d30)” value ([2]; mouse, in vivo, 25 mg/kg) was 20.70 ± 0.51 g and the “Body Weight (g) (d1)” value ([2]; mouse, in vivo, 50 mg/kg) was 21.25 ± 0.53 g. The “Body Weight (g) (d30)” value ([2]; mouse, in vivo, 50 mg/kg) was 21.10 ± 0.60 g, the “Body Weight (g) (d1)” value ([2]; mouse, in vivo, 100 mg/kg) was 21.33 ± 0.62 g and the “Body Weight (g) (d30)” value ([2]; mouse, in vivo, 100 mg/kg) was 21.03 ± 0.55 g. The “Inhibition Rate (tumor growth inhibition rate)” value [3, 10] was 22.64%, the “Relative Tumor Proliferation Rate (T/C)” value [3, 10] was 66.52% and the “Relative Tumor Volume (RTV)” value [3, 10] was 6.03 ± 5.27. For the same compound, the “Tumor Volume (d 1)” value [3, 10] was 173.45 ± 63.55 mm3, the “Tumor Volume (d 30)” value [3, 10] was 1254.78 ± 637.73 mm3 and the “Tumor Weight” value [3, 10] was 1.21 ± 0.53 g. The “Inhibition Rate (tumor growth inhibition rate)” value [3, 11] was 40.17%, the “Relative Tumor Proliferation Rate (T/C)” value [3, 11] was 50.71% and the “Relative Tumor Volume (RTV)” value [3, 11] was 5.02 ± 6.81. For the same compound, the “Tumor Volume (d 1)” value [3, 11] was 206.72 ± 79.72 mm3, the “Tumor Volume (d 30)” value [3, 11] was 1140.10 ± 819.08 mm3 and the “Tumor Weight” value [3, 11] was 0.94 ± 0.39 g. For the same compound, the “Inhibition Rate (tumor growth inhibition rate)” value [3, 12] was 65.46%, the “Relative Tumor Proliferation Rate (T/C)” value [3, 12] was 30.72% and the “Relative Tumor Volume (RTV)” value [3, 12] was 3.60 ± 1.29. For the same compound, the “Tumor Volume (d 1)” value [3, 12] was 331.09 ± 208.02 mm3, the “Tumor Volume (d 30)” value [3, 12] was 1106.23 ± 865.11 mm3 and the “Tumor Weight” value [3, 12] was 0.54 ± 0.22 g. For the same compound, the “tumor volume and relative tumor volume” value ([3]; TE-1, low, medium and high doses, P<0.05) was “significantly lower” and the “mouse weight compared with the model group” value ([3]; mouse, in vivo) was “no significant changes”.
